Data set [1] has as its target T1, tPA (Homo sapiens, UniProt P00750).
T1 construct: purchased Boehringer Ingelheim, Germany 10 mg vial
In words: Halo clot thrombolysis assay, tPA thrombolysis of whole blood clots. It counts as biochemical. The following applies: tPA 5 nM, 27.5% human plasma. The method, then:
(§1) We utilised a high throughput 96-well plate thrombolysis assay (“halo clot assay”) based on the procedure developed by Bonnard et al.. To reduce assay components the halo thrombus formation procedure was modified by replacing the original thrombotic mixture consisting of recombinant tissue factor and synthetic phospholipids reconstituted in 30 mM calcium, with thrombin, and reducing the pro-thrombotic volume (i.e., thrombin) from 5 to 3 µL and blood volume from 25 to 12 µL. Another modification to simplify clot formation consisted of adding the thrombin (3 µL; 500 nM in saline) to one side of the well and 12 µL of blood to the opposite side of well, before using a heat stretched Pasteur pipette with sealed end to mix the two liquids together using 4 to 5 circular motions around the edge of the well (halo clot). The original methodology involved adding the 5 μL of the clotting mixture to the edge of the well, and then using a micropipette to slowly release the 25 μL of blood to the edge of the well while at the same time maintaining a circular motion. Plates were incubated in a humidified 37 °C incubator for 1 h before use in the thrombolysis assay.
(§2) The thrombolysis assay involved adding 30 µL of Tris buffer (50 mM Tris–HCl, 100 mM NaCl, pH 7.4) with or without peptide followed by 55 µL Tris buffer containing tPA or TNK (5 nM final concentration) and 50% human plasma (final plasma concentration during thrombolysis 27.5%). The final concentration of peptide during thrombolysis ranged from 0.25 to 16 µM (note: an intravenous dose of R18D at 350 nmol/kg, which is likely to be neuroprotective achieves a Cmax of 0.7–0.9 µM in healthy male and female rats; unpublished observation). […] Following the addition of tPA or TNK into the wells, clot lysis was monitored over a 1-h period at 37 °C using a plate reader (Cytation5, BioTek, USA) by measuring absorbance at 510 nm every 1 min immediately after orbital shaking (205 rpm for 5 s). Controls consisted of wells with no thrombin (100% clot lysis; L100%) and wells with no tPA or TNK (0% clot lysis; L0%). At the 1-h time point, the percentage of thrombolysis (%T) in tPA or TNK treated samples (LTX) was calculated by transforming absorbance values based on the formula: % T = (LTX) − (L0%)/(L100%) − (L0%) × 100. In addition, during the 1-h period of clot lysis lag time and maximal activity (also known as maximum velocity or Vmax) of the thrombolysis reaction were calculated. The lag time is defined as the time interval between the first absorbance reading (time = 0) and the line of maximum slope of the thrombolysis reaction. The maximal activity is calculated from the maximum slope over the time course of the assay and reflects the capacity of an enzyme to catalyse a reaction (i.e., thrombolysis), with higher values representing higher catalytic activity (i.e., tPA/TNK induced plasmin thrombolysis).
(§3) For each thrombolysis assay, replicates for control wells (L0% and L100%) and tPA or TNK only treated wells consisted of n = 4–8. Replicates for tPA or TNK and peptide treated wells consisted of n = 4. For data analysis and graphical representations of the results, data from three independent thrombolytic assays were pooled. Studies consisted of R18D, R18 and NA-1 examined at the 0.5, 1, 2, 4, 8 or 16 µM concentrations performed concurrently on the same 96-well plate, in respective order. In addition, since R18D is known to be resistant to plasmin degradation and appeared to have the most impact on tPA or TNK thrombolysis, a separate set of three independent assays were performed for this peptide alone at concentrations of 0.25, 0.5, 1, 2, 4, 8 or 16 µM. Furthermore, the second dose study with R18D provided the opportunity to include a lower concentration (0.25 µM) of the peptide and to provide comparative data when only one peptide was examined in the thrombolysis assay per 96-well plate as opposed to examining the three peptides concurrently on the same plate. […]

For data set [2], the system named is tPA or TNK. It counts as biochemical, human. The method, then: as §1, §2
For each thrombolysis assay, replicates for control wells (L0% and L100%) and tPA or TNK only treated wells consisted of n = 4–8. Replicates for tPA or TNK and peptide treated wells consisted of n = 4. For data analysis and graphical representations of the results, data from three independent thrombolytic assays were pooled. Studies consisted of R18D, R18 and NA-1 examined at the 0.5, 1, 2, 4, 8 or 16 µM concentrations performed concurrently on the same 96-well plate, in respective order. […]

The target of data set [3] is T1, tPA. In words: Neuroprotective proteolytic stability after pre-incubation with tPA (glutamic acid excitotoxicity model, MTS). It counts as in vitro ADME. The settings on record: 1 or 2 h or overnight (22-24 h). The method, then:
(§4) Neuronal cultures were maintained in CO2 incubator.
(§5) tPA (1000 µg/mL) or TNK (5000 µg/mL) resuspended in water (Baxter) were used to prepare 10 µg/mL (170 nM; note this is 34 times the concentration used in thrombolysis assay) stocks in MEM/2% B27 supplement (MEM/B27).
(§6) All data are presented as mean ± standard deviation (SD).

Data set [4] concerns the target trypsin (TrypLE Express) (Fusarium oxysporum, UniProt P35049). The settings on record: inferred from neuroprotection; peptide 2 µM, 50% TrypLE Express, 1 or 2 h or overnight (22-24 h).
Procedure: Rat primary cortical cultures were established from embryonic day 18–19 Sprague–Dawley rats (Animal Resources Centre, WA, Australia). Briefly, cortical tissue was dissociated in 2 mL Hanks balanced salt solution (HBBS; Life Technologies, Australia) supplemented with 1.3 mM L-cysteine, 10 U/mL papain (Sigma-Aldrich, Australia) and 50 U/mL DNase (Sigma-Aldrich) by trituration with a fire-polished pipette. Dissociated neurons were transferred to a 15-mL tube containing 13 mL of cold Dulbecco’s modified Eagle’s medium (DMEM; Life Technologies)/10% horse serum (Life Technologies) and centrifuged for 4 min at 300×g. Neurons were gently resuspended in 1.5 mL of cold Neurobasal (NB; Life Technologies)/2% B27 supplement (B27; Life Technologies) and the neuronal cell concentration adjusted to 50,000 neurons/70 μL and 70 μL inoculated into each well of a 96-well microtiter plate (Nunc, USA) pre-treated wells. Pre-treated wells were coated with 50 μL of poly-D-lysine (50 μg/mL; 70–150 K; Sigma-Aldrich) for 2–3 h at room temperature before being replaced with 50 μL of NB/B27, 4% fetal bovine serum (Life Technologies), 1% horse serum, 62.5 μM glutamic acid, 25 μM 2-mercaptoethanol, 30 μg/mL penicillin and 50 μg/mL streptomycin and placed in a CO2 incubator (5% CO2, 95% air balance, 98% humidity, 37 °C) prior to seeding with neurons. Neuronal cultures were maintained in CO2 incubator. On day in vitro four, 60 µL fresh NB/B27 containing the mitotic inhibitor cytosine arabinofuranoside (final concentration 0.15 μM; Sigma-Aldrich) was added and neuronal culture were used on day in vitro 11 to 13.
As an alternative to trypsin, TrypLE Express (Thermo Fischer Scientific, Australia) a synthetic serine protease with trypsin-like activity was used. […] Hereafter, TrypLE Express is referred to as trypsin.
Trypsin solution was added to an equal volume of MEM/2% B27 (T:MEM/B27). […] Following the incubation, 50 µL of the T:MEM/B27 or HBSS:MEM/B27 peptide solution was used to treat neuronal culture as described below for the glutamic acid excitotoxicity model. […]
Data set [5] concerns the target T2, TNK (Homo sapiens, UniProt P00750, H332A/K331A/N152Q/R333A/R334A/T138N).
T2 construct: purchased Boehringer Ingelheim 50 mg vial
In words: Halo clot thrombolysis assay, TNK thrombolysis of whole blood clots. It counts as biochemical. The settings on record: concurrent study, TNK 5 nM, 27.5% human plasma. As for the experimental part: as §1, §2, §3

Data set [6] deals with plasmin. The settings on record: cited from earlier work. The source says:
Given the potential future application of the R18D, R18 and NA-1 peptides as ischaemic stroke neurotherapeutics, it is important to establish if they interfere with current and future standard of care treatments, namely alteplase (tPA; recombinant tissue plasminogen activator) and tenecteplase (TNK; a modified version of tPA) thrombolysis, which are routinely administered prior to thrombectomy. […] NA-1 is also degraded by plasmin [8]. Together, these findings confirm that peptides synthesised with D-enantiomer amino acids such as R18D, unlike peptides synthesised with L-enantiomer amino acids are highly resistant to proteolytic degradation and are likely to retain their neuroprotective efficacy ...

The target of data set [7] is T2, TNK. In words: Neuroprotective proteolytic stability after pre-incubation with TNK (glutamic acid excitotoxicity model, MTS). It counts as in vitro ADME. The following applies: 1 or 2 h or overnight (22-24 h). The method, then:
as §4, §5, §6

The target of data set [8] is T1, tPA. The following applies: cited from earlier work. The text has this: (§7) A potential mechanism that could negatively influence the neuroprotective efficacy of a peptide (and protein) neurotherapeutic when co-administered with a thrombolytic agent in ischaemic stroke is its proteolytic stability. For example, a peptide could be degraded directly by the proteolytic action of tPA and TNK, or indirectly by plasmin following its activation by tPA/TNK.

The conditions of data set [9]: in the order; 8 (NA-1), unpublished data (R18D); cited from earlier work. The source says:
It is important to mention that the results obtained in this study are likely to overestimate any negative effects of R18D, R18 and NA-1 on tPA/TNK lag time and thrombolysis compared with what would occur clinically for several reasons. Firstly, positively charged peptides administered directly into the circulation would have a larger pool of negatively charged plasma proteins such as albumin to bind, and thus reduce any inhibitory electrostatic effects of the peptides on lag time and thrombolysis. In addition, the in vitro thrombolysis assay used in this study was performed in 27.5% plasma wh ...

For data set [10] the following is noted: human, in vivo, 0.5 mg/kg; cited from earlier work.
Text: as §7

Data set [11] has as its system whole blood halo clot. In words: Halo assay dose response study of tPA and TNK. The following applies: 5 nM tPA or TNK, halo assay dose response study (Supplementary Fig. 1; assay performed without added plasma), N = 4. It counts as biochemical, human. As for the experimental part:
We utilised a high throughput 96-well plate thrombolysis assay (“halo clot assay”) based on the procedure developed by Bonnard et al.. To reduce assay components the halo thrombus formation procedure was modified by replacing the original thrombotic mixture consisting of recombinant tissue factor and synthetic phospholipids reconstituted in 30 mM calcium, with thrombin, and reducing the pro-thrombotic volume (i.e., thrombin) from 5 to 3 µL and blood volume from 25 to 12 µL. […]
The thrombolysis assay involved adding 30 µL of Tris buffer (50 mM Tris–HCl, 100 mM NaCl, […] during thrombolysis 27.5%). […] Following the addition of tPA or TNK into the wells, clot lysis was monitored over a 1-h period at 37 °C using a plate reader (Cytation5, BioTek, USA) by measuring absorbance at 510 nm every 1 min immediately after orbital shaking (205 rpm for 5 s). […] At the 1-h time point, the percentage of thrombolysis (%T) in tPA or TNK treated samples (LTX) was calculated by transforming absorbance values based on the formula: % T = (LTX) − (L0%)/(L100%) − (L0%) × 100. In addition, during the 1-h period of clot lysis lag time and maximal activity (also known as maximum velocity or Vmax) of the thrombolysis reaction were calculated. The lag time is defined as the time interval between the first absorbance reading (time = 0) and the line of maximum slope of the thrombolysis reaction. […]

No end group written: not given here. Bounds are passed on as bounds.

T2 sequence (P00750 36-562 T138N/N152Q/K331A/H332A/R333A/R334A): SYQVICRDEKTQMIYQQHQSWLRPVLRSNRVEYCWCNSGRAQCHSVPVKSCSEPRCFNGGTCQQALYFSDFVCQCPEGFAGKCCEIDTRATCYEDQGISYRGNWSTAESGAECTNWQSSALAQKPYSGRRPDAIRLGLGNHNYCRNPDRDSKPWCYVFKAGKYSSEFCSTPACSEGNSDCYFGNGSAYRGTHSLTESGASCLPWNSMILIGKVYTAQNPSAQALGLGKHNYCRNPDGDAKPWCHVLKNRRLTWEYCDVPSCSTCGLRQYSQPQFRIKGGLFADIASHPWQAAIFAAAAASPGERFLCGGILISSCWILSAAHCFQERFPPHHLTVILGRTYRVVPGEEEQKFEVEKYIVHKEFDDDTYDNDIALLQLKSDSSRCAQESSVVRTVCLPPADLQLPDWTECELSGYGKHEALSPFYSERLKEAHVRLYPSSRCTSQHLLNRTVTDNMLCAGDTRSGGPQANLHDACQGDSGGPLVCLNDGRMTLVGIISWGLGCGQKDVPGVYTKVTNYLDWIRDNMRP
T1 sequence (P00750 36-562): as the sequence (P00750 36-562 T138N/N152Q/K331A/H332A/R333A/R334A) above, with N103T, Q117N, A296K, A297H, A298R, A299R counted along it
Sequence of trypsin (TrypLE Express) (P35049 25-248): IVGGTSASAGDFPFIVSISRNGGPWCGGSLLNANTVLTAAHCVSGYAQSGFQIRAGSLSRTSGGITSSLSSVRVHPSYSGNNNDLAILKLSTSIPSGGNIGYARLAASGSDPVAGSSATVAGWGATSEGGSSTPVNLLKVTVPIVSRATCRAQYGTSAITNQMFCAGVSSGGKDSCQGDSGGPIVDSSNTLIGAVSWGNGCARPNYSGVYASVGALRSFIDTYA

Turning to RRRRRRRRRRRRRRRRRR [R18], in data set [1] (concurrent study, 0.5-16 µM peptide), the “Effect on tPA lag time vs tPA control” value is “did not significantly increase tPA lag time”. For the same substance, in data set [1] (peptide 16 µM, concurrent study, 37 °C), the “Increase in tPA thrombolysis maximal activity” value is 48.36%. In addition, the “Effect on percentage tPA thrombolysis at 1 h vs tPA control” value in data set [1] (three peptides concurrently on the same plate, 0.5-16 µM peptide, Tris pH 7.4, 37 °C, 1 h, absorbance 510 nm, three independent assays pooled, n = 4, Dunnett's test) is “did not significantly inhibit thrombolysis”. In addition, the “Increase in lag time (time to the commencement of thrombolysis)” value in [2] (range over peptide concentrations 0.25-16 µM and both thrombolytics, 1-h assay) lay in the range of 0 to 5.53 min. Besides, in data set [2] (summary in abstract), the “Effect on maximal activity of the thrombolysis reaction” value is on record as “appeared to increase the maximal activity”. Besides, the “Resistance to degradation by tPA” value in data set [3] (inferred from retained neuroprotection, peptide 2 µM, tPA 170 nM) was “resistant to degradation”. In data set [3] (peptide 2 µM in MEM/B27 with tPA 10 µg/mL (170 nM), 37 °C CO2 incubator, then rat cortical neurons, glutamic acid 100 µM 5 min, MTS viability at 20-24 h, N = 4-8), the “Neuroprotective efficacy after incubation with tPA” value is “a similar and a high level of neuroprotective efficacy”. Moreover, the “Resistance to degradation by trypsin” value in data set [4] is recorded as “only R18D is resistant”. Besides, the “Effect on TNK thrombolysis maximal activity vs TNK control” value in [5] (0.5-16 µM peptide) is “did not significantly impact TNK thrombolysis maximal activity”. For the same substance, the “Effect on percentage TNK thrombolysis at 1 h vs TNK control” value in data set [5] (0.5-16 µM peptide, 37 °C, 1 h) was “did not significantly inhibit TNK thrombolysis”. Further, in data set [5] (peptide 8 µM, 37 °C), the “Increase in TNK lag time” value is 5.53 min. Further, in data set [6], the “Neuroprotective properties in the glutamic acid excitotoxicity injury model when pre-incubated with plasmin” value is listed as “not” and the “Sensitivity to proteolytic degradation by plasmin” value is reported as “sensitive”. For the same substance, the “Resistance to degradation by TNK” value in data set [7] (inferred from retained neuroprotection, peptide 2 µM, TNK 170 nM) is “resistant to degradation”. In data set [7] (peptide 2 µM in MEM/B27 with TNK 10 µg/mL (170 nM), 37 °C CO2 incubator, then rat cortical neurons, glutamic acid 100 µM 5 min, MTS viability at 20-24 h, N = 4-8), the “Neuroprotective efficacy after incubation with TNK” value was “a similar and a high level of neuroprotective efficacy”.

In the case of “YGRKKRRQRRRKLSSIESDV [NA-1, reference compound]”, the “Degradation when incubated with tPA” value in data set [8] was “is not degraded”. Also, in data set [9], the “In vivo peak plasma concentration” value was 1 to 5 µM and the Plasma half-life was 5 to 15 min. Besides, in data set [6], the “Sensitivity to proteolytic degradation by plasmin” value is on record as “sensitive”.

On to “tPA: recombinant tissue plasminogen activator”, for which, in data set [10], the Serum concentration is reported as at most 30 nM. Further, in data set [11], the “Clot lysis after 1-h” value was “approximately 90%”.
